Test results published in patent publication US20070207993A1, “Molybdenum carbonyl complexes for treating rheumatoid arthritis and other inflammatory diseases” (Alfama - Investigacao e Desenvolvimetno De Productos …, priority 2005, published 2007).

Key:
[1] = Spontaneous CO release from suspensions (gas chromatography, TCD); format: physicochemical; conditions: suspension in RPMI with 10% FBS, 37° C., dark
Experimental: CO detection was carried out by Gas Chromatography using a thermal conductivity detector (TCD) for the quantification of CO and CO2. The experiments were done under an initial atmosphere of reconstituted air, free of CO and CO2. […] […] Samples were withdrawn with gas-tight Hamilton syringes after homogenization of the head-space at given time intervals, preferably 2 hours, 4 hours and 6 hours. […] The volumes of CO released are usually in the range between 0.5-3 mL.
As a possible result of the use of suspensions, the number of CO equivalents released in RPMI varied slightly. As an example of the possible variations, the average of eight independent assays done with suspensions of Compound I.1 is given in Table 2.

[2] = CO release in the presence of reactive oxygen species (TBHP, H2O2, KO2); format: physicochemical; conditions: 25° C., dark; for Equivalents of CO2 released, H2O2 / Equivalents of CO released, H2O2: H2O2 100:1, water; for Equivalents of CO2 released, TBHP / Equivalents of CO released, TBHP: TBHP 100:1, water
Experimental: The studies were done using the same method and apparatus described in Example 7 with the following modifications: RPMI/FBS was replaced by double distilled water in the experiments with H2O2 and TBHP and by tetrahydrofuran (THF) for the experiments with KO2; the temperature was kept at 25° C. The concentration of Compound I.1 was approximately 1 mM and the ration of concentrations of H2O2, TBHP and KO2 relative to Compound I.1 was 100:1. The amount of CO2 generated was also measured in the same experiment to ascertain the concurrent oxidation of coordinated CO. TBHP was added from a 70% aqueous solution and H2O2 from a 30% aqueous solution.

rat arthritis model = conditions: previously shown, US 2003/0068387; cited from earlier work

## O=[C][Mo]([I])([C]=O)([C]=O)([C]=O)[C]=O [Compound I.6]
[1]; 2 hours
  Equivalents of CO released, RPMI: 0.42 equivalents of CO
[1]; 4 hours
  Equivalents of CO released, RPMI: 1.00 equivalents of CO
[1]; 6 hours
  Equivalents of CO released, RPMI: 1.25 equivalents of CO
[2]; 1 h
  Equivalents of CO2 released, H2O2: 0.14 equivalents
  Equivalents of CO released, H2O2: 1.31 equivalents
  Equivalents of CO2 released, TBHP: 0.00 equivalents
  Equivalents of CO released, TBHP: 0.48 equivalents
[2]; 3 h
  Equivalents of CO2 released, H2O2: 0.44 equivalents
  Equivalents of CO released, H2O2: 3.04 equivalents
  Equivalents of CO2 released, TBHP: 0.24 equivalents
  Equivalents of CO released, TBHP: 1.75 equivalents
[2]; 5 h
  Equivalents of CO2 released, H2O2: 0.51 equivalents
  Equivalents of CO released, H2O2: 3.20 equivalents
  Equivalents of CO2 released, TBHP: 0.55 equivalents
  Equivalents of CO released, TBHP: 3.51 equivalents
[2]; 24 h
  Equivalents of CO2 released, H2O2: 0.35 equivalents
  Equivalents of CO released, H2O2: 1.91 equivalents
  Equivalents of CO2 released, TBHP: 0.99 equivalents
  Equivalents of CO released, TBHP: 4.29 equivalents

## O=[C][Mo]([I])([C]=O)([C]=O)([C]=O)[C]=O [Compound I.16, K(diglyme)3 [Mo(CO)5I]]
[1]; 2 hours
  Equivalents of CO released, RPMI: 0.94 equivalents of CO
[1]; 4 hours
  Equivalents of CO released, RPMI: 1.20 equivalents of CO
[1]; 6 hours
  Equivalents of CO released, RPMI: 1.28 equivalents of CO

## O=[C][Mo]([I])([C]=O)([C]=O)([C]=O)[C]=O [Compound I.18, [NH4](diglyme)3[Mo(CO)5I]]
[1]; 2 hours
  Equivalents of CO released, RPMI: 0.55 equivalents of CO
[1]; 4 hours
  Equivalents of CO released, RPMI: 0.73 equivalents of CO
[1]; 6 hours
  Equivalents of CO released, RPMI: 0.79 equivalents of CO

## ClCCl [Methylene chloride]
Rat arthritis model
  effects in a rat arthritis model: beneficial effects
